Drawing on patent US7973056B2, “Triazole derivative or salt thereof” (Fujifilm Finechemicals Co., Ltd, priority 2008, dated 2011), this text covers MIC for 1 compound.

As usually defined, the MIC is the lowest concentration found to suppress growth. A high value points to weaker potency.

Test in all cases: Antifungal activity test (in vitro), MIC
Assay type in all cases: cell-based

The subject of assay [1] is Aspergillus niger ATCC 8740. Conditions: ATCC8740. The procedure:
(§1) Minimum inhibitory concentration (MIC) of each of the compounds obtained in Examples 1 to 12 was measured for respective fungi at MOS Pharm Service, by the methods described in Antimicrobial Agents and Chemotherapy, vol. 3, pp. 40-48 (1973), Antimicrobial Agents and Chemotherapy, vol. 33, pp. 215-222 (1989) and Antimicrobial Agents and Chemotherapy, vol. 38, pp. 2362-2368 (1994). The measuring conditions are shown in the following. In this case, Voriconazol was used as a comparative compound. Aspergillus niger ATCC 8740; Cultured at 28° C. for 2 days using potato dextrose broth, and this was used as a cell suspension. Each of the compounds of the invention was adjusted to a concentration of 1% by weight using dimethyl sulfoxide (DMSO) and a medium similar to the respective medium used in the above-mentioned fungal culture, having a final concentration of from 0.001 to 100 μg/ml, was prepared. Each of the inoculation cell suspensions prepared by the above-mentioned methods was inoculated onto this agar plate. […] In this connection, Voriconazol was used as the comparative compound C-1.

Assay [2] deals with Candida albicans ATCC 44858. Conditions: ATCC44858.
For assay [3], the system named is Trichophyton rubrum ATCC 10218. Conditions: ATCC10218. The procedure: as §1, with “compound. Trichophyton rubrum” for “compound. Aspergillus niger”, “ATCC 10218;” for “ATCC 8740;”, “for 3” for “for 2”, “using fluid Sabouraud medium,” for “using potato dextrose broth,”

The structures appear in SMILES notation. ≈ marks a conversion by molar mass, not a printed value.

Take `C[C@@H](N1CC=C(c2ccccn2)CC1)[C@](O)(Cn1cncn1)c1ccc(F)cc1F` [I-3, (2R,3R)-2-(2,4-difluorophenyl)-3-(3′,6′-dihydro-2,4′-bipyridin-1′(2′H)-yl)-1-(1,2,4-triazol-1-yl)butan-2-ol]: the MIC in assay [1] is 1 µg/mL (≈ 2.43 µM); in assay [2], 1 µg/mL (≈ 2.43 µM); in assay [3], 0.3 µg/mL (≈ 0.729 µM).
